Data on two compounds can be found in ChEMBL document CHEMBL1128819, “Chiral spirocyclic benzopyran potassium channel openers: Evidence for the active conformation of levcromakalim” (Bioorg Med Chem Lett, 1995).

The nature of assay [1]: In vitro potassium channel opening activity in A10 (smooth muscle) cells; Inactive. The assay is classed as functional, cell-based, Rattus norvegicus.
For a further assay, the system named is Rattus norvegicus. The experiment in a line: Effective dose required for lowering of blood pressure, when administered intravenously to CUP-anesthetized rats. The assay is classed as functional. Conditions: iv; call rule not given here.
The nature of assay [2]: In vitro potassium channel opening activity in A10 (smooth muscle) cells. Format: functional, cell-based, Rattus norvegicus.

Turning to `CCCNC1=NC(=O)[C@]2(CC(C)(C)Oc3ccc(Br)cc32)N1`, the EC50 result in assay [1] was “Not Active”. The compound `CCCNC1=NC(=O)[C@@]2(CC(C)(C)Oc3ccc(Br)cc32)N1` gave an ED30 with Rattus norvegicus of 2.5 µg/kg. In addition, the midpoint of the response in assay [2], the EC50, lay at 4 nM.

Usually EC50 stands for the concentration that produces a half-maximal response. Higher therefore signals lower potency in that assay.
